{"source": "the Kinase Knowledgebase extract (Sharma et al. 2016)"}
{"molecular_target": "PIK3CG (human) (UniProt P48736)", "sequence (P48736 whole entry, looked up)": "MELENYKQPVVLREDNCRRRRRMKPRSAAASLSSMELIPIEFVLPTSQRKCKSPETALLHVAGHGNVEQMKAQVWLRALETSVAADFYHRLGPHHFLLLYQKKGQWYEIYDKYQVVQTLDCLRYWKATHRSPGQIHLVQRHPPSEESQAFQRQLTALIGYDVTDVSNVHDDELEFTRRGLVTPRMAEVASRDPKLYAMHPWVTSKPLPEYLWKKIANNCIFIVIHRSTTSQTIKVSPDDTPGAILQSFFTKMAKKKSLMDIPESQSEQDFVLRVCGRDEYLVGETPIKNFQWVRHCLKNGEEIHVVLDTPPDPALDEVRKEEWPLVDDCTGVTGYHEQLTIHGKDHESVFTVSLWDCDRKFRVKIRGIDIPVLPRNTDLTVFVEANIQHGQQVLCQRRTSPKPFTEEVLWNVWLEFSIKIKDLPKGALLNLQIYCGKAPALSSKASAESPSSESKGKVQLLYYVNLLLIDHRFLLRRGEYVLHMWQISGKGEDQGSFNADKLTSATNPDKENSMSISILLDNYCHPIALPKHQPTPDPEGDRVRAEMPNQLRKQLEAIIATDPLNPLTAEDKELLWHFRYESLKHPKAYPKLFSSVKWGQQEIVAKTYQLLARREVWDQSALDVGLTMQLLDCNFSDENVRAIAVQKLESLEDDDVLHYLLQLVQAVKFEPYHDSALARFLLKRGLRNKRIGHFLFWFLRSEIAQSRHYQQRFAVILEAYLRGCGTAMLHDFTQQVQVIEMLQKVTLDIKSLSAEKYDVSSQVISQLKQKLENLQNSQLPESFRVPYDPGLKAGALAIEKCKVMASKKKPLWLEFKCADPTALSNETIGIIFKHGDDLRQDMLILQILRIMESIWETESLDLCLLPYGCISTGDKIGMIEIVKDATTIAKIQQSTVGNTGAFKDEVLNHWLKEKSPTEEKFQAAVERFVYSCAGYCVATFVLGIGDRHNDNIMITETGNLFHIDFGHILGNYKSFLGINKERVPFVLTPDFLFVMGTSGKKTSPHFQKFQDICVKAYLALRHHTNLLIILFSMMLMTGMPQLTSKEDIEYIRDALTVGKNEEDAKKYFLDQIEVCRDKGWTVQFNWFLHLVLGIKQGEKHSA", "experiment": "Assessment of PIK3CG Kinase Activity", "units": {"IC50": "nM"}}
{"molecule": "COc1ccc2c(SC3CCCCC3)c(C(=O)Nc3nnn[nH]3)sc2c1F", "IC50": 27}
{"molecule": "COc1cc2c(O[C@@H]3CCC[C@@H](C)C3)c(C(=O)Nc3nn[nH]n3)sc2cc1F", "IC50": 35}
{"molecule": "COc1cc2c(OCC3(C)CC3)c(C(=O)Nc3nn[nH]n3)sc2cc1F", "IC50": 14}
{"molecule": "COc1ccc2sc(C(=O)Nc3nnn[nH]3)c(Sc3ccc(CC(=O)O)cc3)c2c1F", "IC50": 19400}
{"molecule": "COc1ccc2sc(C(=O)Nc3nnn[nH]3)c(Sc3ccc(C4CCCCC4)cc3)c2c1F", "IC50": 505}
{"molecule": "COc1ccc2sc(C(=O)Nc3nnn[nH]3)c(Sc3cccc(C(F)(F)F)c3)c2c1F", "IC50": 11000}
{"molecule": "COc1ccc2sc(C(=O)Nc3nnn[nH]3)c(SC(c3ccccc3)C(C)N(C)C(C)=O)c2c1F", "note": "(configuration not stated)", "IC50": 20000}
{"molecule": "COc1cc2c(SC3CCCCC3)c(C(=O)Nc3nnn[nH]3)sc2cc1F", "IC50": 12}
{"molecule": "COc1cc2c(OC3CCN(C(=O)OC(C)(C)C)CC3)c(C(=O)Nc3nn[nH]n3)sc2cc1F", "IC50": 16}
{"molecule": "COc1cc2c(Oc3ccccc3)c(C(=O)Nc3nn[nH]n3)sc2cc1F", "IC50": 24.5}
{"molecule": "COc1cc2c(O[C@@H]3CCC[C@H](C)C3)c(C(=O)Nc3nn[nH]n3)sc2cc1F", "IC50": 3.8}
{"molecule": "COc1cc2c(Sc3ccc(Cl)cc3)c(C(=O)Nc3nnn[nH]3)sc2cc1F", "IC50": 45.5}
